From patent US4696920A, “Certain 2-substituted 1,3-propylidenediphosphonate derivatives, pharmaceutical compositions containing them and their use as antihypertensive agents” (priority 1984, dated 1987)
“Also recorded” adds a separate entry of the source.

Key:
[1] = system: slow inward current of the action potential; conditions: classical calcium antagonists; cited from earlier work
[2] = system: isolated rat atrium (atrium rate); assay: Chronotropic activity in isolated rat atrium; design: species or system rat (male SHR, Okamoto-Aoki); conditions: 5.0 × 10^-6 M, mean ± SEM, read-out: Decrease in atrium rate (% pretest)
Protocol: Spontaneously hypertensive male rats (SHR) (Okamoto-Aoki strain) were anesthetized with Pentobarbital (Nembutal Abbott, 60 mg/kg, i.p.). The hearts were quickly excised and both atria were dissected free from adjacent cardiac tissues. The atria were immediatly placed in a 50 ml Krebs-Ringer bath with the following composition (mM): NaCl, (120.0); KCl, (5.63); CaCl2, (2.0); MgCl2, (2.10); NaHCO3, (25.0); Glucose, (9.7) (pH 7.4). The solution was continuously bubbled with a O2 /CO2 mixture (95/5) and maintained at 37±1° C. The atrium was fixed to an optical displacement transducer (IITC, USA) under a resting tension of 1 g in order to measure atrial rate. The preparation was allowed to equilibrate for 40 min then cumulative dose-response curves were determined for each test compound (0.5-5 μMole/l). Maximum effect was normally obtained within 30-40 min. for each concentration.
Stock solutions of the 1,3-diphosphonates were generally prepared in 0.9% saline and water insoluble compounds were prepared in 50% ethanol. […] When tested at the concentration of 5.0×10^-6 M a decrease in atrium rate of more than 5% was considered as significant.
All data are presented as % decrease of initial atrium rate (mean values±SEM). A potent negative chronotropic effect was found with all compounds tested (table 3).

[3] = system: mean blood pressure in rat; assay: Acute intravenous hypotensive activity in anesthetized rats; format: in vivo, rat (male Wistar); conditions: for hypotensive activity (in words): acute i.v., Table 4
Protocol: Male Wistar rats were anesthetized with Pentobarbital (Nembutal, 60 mg/kg i.p.) and heparinized (5 mg/kg i.p.). After tracheotomy the right carotid was cannulated (catheter PE 50); blood pressure was measured with a pressure transducer (Statham P 23 db) and recorded on a polygraph (Beckman).
Animals received 0.5 and 1.5 mg/kg of the test compounds. Less than 100 μl of test compounds dissolved in 0.9% saline were injected in the jugular vein. Highly water insoluble compounds were suspended in 2% Tween-80. Injection of the vehicle alone had no detectable hypotensive effect.
Results presented are expressed as percent decrease in initial mean blood pressure (Mean±SEM).

[4] = system: calcium channel binding site for [^3 H]-Nitrendipine (rat brain membranes); assay: [^3 H]-Nitrendipine binding to rat brain membranes; design: species or system rat (male Wistar); conditions: Table 1a; for Specifically bound [^3 H]-Nitrendipine % of control value: compound concentration 1.0 μM; for Bound ^3 H at 1.0 μM / Bound ^3 H at 0.1 μM: ratio of [^3 H]-Nitrendipine bound at 1.0 and 0.1 μM compound
How it was run: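 Cerebral cortex membranes from male Wistar rats (400 μg protein/tube) were incubated with [3H]-nitrendipine and compounds in 50 mM Tris-HCl pH 7.4/150 mM NaCl/1 mM CaCl2 under subdued light, ethanol ≤0.1%. Bound radioligand was collected by GF/B filtration and counted; data are percent specific binding versus control, with compounds judged at 1.0 μM final.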

[5] = system: rat trachea contraction induced by KCl depolarization; assay: KCl-induced rat trachea contraction; design: species or system rat (male SHR, Okamoto-Aoki); conditions: for activity at 1 µM: Rattus norvegicus, 40 min, read-out: Contraction (% max.); for activity on KCl-induced trachea contraction (in words): final concentration 1.0 μM
How it was run: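 Spiral trachea strips from male SHR rats were held in Krebs-Ringer (pH 7.4, 95/5 O2/CO2, 37±1° C) under 1.5–2 g tension, and contraction was measured isometrically. After a 65 mM KCl plateau, drugs (1.0 μM final) were added. Residual contraction at 40 min was expressed as % of the initial KCl response.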

[6] = system: drug receptor sites associated with calcium channels; conditions: known calcium antagonists; cited from earlier work
[7] = Rattus norvegicus, iv, read-out: Decrease in mean blood pressure (% pretest)

Compound	inhibition of slow inward current (in words) [1]	inhibition at 5 µM [2] [%]	inhibition in vivo at 0.5 mg/kg [3, 7] [%]	modulation of [^3 H]-Nitrendipine binding (in words) [4]	Specifically bound [^3 H]-Nitrendipine % of control value [4]	Bound ^3 H at 1.0 μM / Bound ^3 H at 0.1 μM [4]	activity at 1 µM [5] [%]	activity on KCl-induced trachea contraction (in words) [5]	hypotensive activity (in words) [3]	inhibition in vivo at 1 mg/kg ([3]; Rattus norvegicus, iv, 1.0 mg/kg, known hypotensive drugs, mean ± SEM, read-out: Decrease in mean blood pressure (% pretest)) [%]	effect on [^3 H]-Nitrendipine binding (in words) [6]
COC(=O)C1=C(C)NC(C)=C(C(=O)OC)C1c1ccccc1[N+](=O)[O-] [Nifedipine]	inhibit with very high specificity the slow inward current of the action potential	–	–	–	–	–	–	–	–	–	–
CCCCOP(=O)(CC(Cc1cccc2ccccc12)CP(=O)(OCCCC)OCCCC)OCCCC [Compound 83]	–	4.4 ± 0.6	10.6 ± 0.5	strong inhibitors	36 % of control value	0.548	62.5 ± 11.5	potent pharmacological activity	–	–	–
CCCCOP(=O)(CC(Cc1ccccc1)CP(=O)(OCCCC)OCCCC)OCCCC [Compound 73, Tetrabutyl 2-benzyl-1,3-propylidenediphosphonate]	–	18.8 ± 11.2	50 ± 3.8	strong inhibitors	81 % of control value	0.862	46.2 ± 1.8	potent pharmacological activity	hypotensive activity superior to that of classical hypotensive drugs and of the calcium antagonists used as references	–	–
CCCCOP(=O)(CC(CCc1ccccc1)CP(=O)(OCCCC)OCCCC)OCCCC [Compound 74]	–	8.3 ± 4.5	50.8 ± 2.7	–	17 % of control value	0.380	35 ± 1.2	potent pharmacological activity	hypotensive activity superior to that of classical hypotensive drugs and of the calcium antagonists used as references	–	–
COc1ccc([C@@H]2Sc3ccccc3N(CCN(C)C)C(=O)[C@@H]2OC(C)=O)cc1 [Diltiazem]	inhibit with very high specificity the slow inward current of the action potential	–	–	–	–	–	–	–	–	47.9	stimulators; also recorded: enhances [^3 H]Nitrendipine binding
